{"source": "patent US11274131B2", "about": "“IgM-mediated receptor clustering and cell modulation” (MAYO FOUNDATION FOR MEDICAL EDUCATION AND RESEARCH, priority 2007, dated 2022)", "key": {"human DC": {"tested_on": "human DC", "experiment": "Cap formation / FRET on human DC", "assay_type": "cell-based", "procedure": "(§1) DC of murine origin were stained with anti-Class II-FITC (MF/114.15.2), and either anti-CD80-PE (16.10A1)/CD86-PE (GL-1), or anti-CD11c-PE (N418). DC of human origin were stained with anti-Class II-FITC (LN3) and anti-CD80-PE (2D10.4)/CD86-PE (IT2.2). All incubations were carried out for 15 minutes at 37° C. The cells were subsequently stimulated with 10 μg/ml of control (sHIgM39) or B7-DC XAb, and were observed every 5 minutes using time lapse confocal imaging at 40.times magnification with a LSM510 Laser scanning confocal microscope having a 37° C. stage (Carl-Zeiss Inc, Oberkochen, Germany). Jurkat cells were pre stained with anti-human CD28-FITC (CD28.2) for 15 minutes, followed by addition of 10 μg/ml of MTAb control antibody sHIgM39, MTAb sHIgM22, or anti-K^b IgM (28-13-3), and were and analyzed in the same manner as the DC.\nThe flow cytometry approach for FRET was used as a way of quantifying molecular aggregation on the cell surface and was carried out as described previously (Block et al. (2001) J. Immunol. 167:821-826). Briefly, DC of murine origin were stained with anti-Class II APC (M5/114.15.2) and anti-CD80-PE (16.10A1)/CD86-PE(GL-1) for 15 minutes to visualize FRET between these molecules. […] Data collected as log10 fluorescence were analyzed using CELLQUEST™ (BD Biosciences). […]"}, "mouse DC": {"tested_on": "mouse DC", "experiment": "Cap formation / FRET on mouse DC", "assay_type": "cell-based", "procedure": "as §1\nThe flow cytometry approach for FRET was used as a way of quantifying molecular aggregation on the cell surface and was carried out as described previously (Block et al. (2001) J. Immunol. 167:821-826). Briefly, DC of murine origin were stained with anti-Class II APC (M5/114.15.2) and anti-CD80-PE (16.10A1)/CD86-PE(GL-1) for 15 minutes to visualize FRET between these molecules. Monitoring for FRET induced by interaction between TREM-2 and Class-II molecules was achieved by incubating the cells with the abovementioned anti-Class-II antibody and anti-TREM-2-PE (237920). DC of human origin were stained for 15 minutes with APC-anti class II (LN3) and anti-CD80-PE (2D10.4)/CD86-PE (IT2.2). In experiments involving blocking of B7-DC, both fluorophore labeled antibodies and purified anti-mouse B7-DC (TY-25) or purified anti-human B7-DC (MIH18) IgG monoclonal antibody was added at 10 μg/ml for 15 minutes. Jurkat cells were stained with anti-human Class I-PE (G46-2.6) or anti-human CD4 (RPA-T4) and anti-human CD28-APC (CD28.2) for 15 minutes. Cells were stimulated with control antibody or B7-DC XAb or purified anti-mouse class II IgM (25-9-3) (experiments involving DC) or sHIgM22 (experiments involving Jurkat cells) and aliquots from different groups were taken at different time points. After 15 minutes of incubation, the cells were washed and fixed in 2% paraformaldehyde prior to analysis by FACS using a FACSCALIBER™ (BD Biosciences, Franklin Lakes, N.J.). Data collected as log10 fluorescence were analyzed using CELLQUEST™ (BD Biosciences). The FRET signal was visualized in FL3 channel (650-670 nm LP)."}, "CpG-treated DCs": {"tested_on": "CpG-treated DCs", "experiment": "Antigen persistence in CpG-treated DCs", "assay_type": "cell-based, mouse", "conditions": "CpG-treated wild type DCs or B7DC−/− DCs", "procedure": "FIG. 15 is a series of histograms showing restoration of antigen persistence in CpG-treated DCs expressing Kb-peptide constructs upon treatment with the appropriate MTab. DCs were untreated (blue) or treated with 10 ug/mL CpG (red) 48 hours prior to harvesting. They were then pulsed with Ovalbumin-Alexa647 and either hIgM12, hIgM22, or 28-13-3, and Ovalbumin-647 levels were measured in CD11c positive cells by flow cytometry.\nThe ability of Kb-peptide expressing DCs to alter antigen processing was then tested. Untreated DCs take up fluorochrome-labeled protein, and the fluorochrome labeled protein persists over 24 hours, as measured by flow cytometry. DCs treated with a Toll receptor agonist (LPS, CpG, or Polyl:C) 24 hours prior to addition of protein lose their ability to take up and maintain this antigen. […] The ability of B7DC−/− DCs transduced with the Kb-peptide constructs was compared to wild type DCs or knockouts transduced with B7DC."}}, "data": [{"substance": "B7-DC XAb: human monoclonal IgM from a Waldenstrom's macroglobulinemia patient that binds and cross-links B7-DC on DC", "values": [{"measurement": "reorganization of tagged class II, CD80, CD86 into a capped cluster", "setting": "human DC", "result": "reorganized into a distinctly capped cluster"}, {"measurement": "FRET among class II, CD80 and CD86", "setting": "human DC; within ten minutes", "result": "strong FRET signal"}, {"measurement": "co-capping of CD80 and CD86 or CD11c with class II molecules", "setting": "mouse DC; DC from CD80/CD86 double knock out and MHC class II knock out mice", "result": "still occurred"}, {"measurement": "reorganization of tagged class II, CD80, CD86 into a capped cluster", "setting": "mouse DC; mouse DC", "result": "reorganized into a distinctly capped cluster"}, {"measurement": "FRET among class II, CD80 and CD86", "setting": "mouse DC; mouse DC, within ten minutes", "result": "strong FRET signal"}, {"measurement": "time to association of TREM-2 with class II molecules by FRET", "setting": "mouse DC; mouse DC, increased by 15 minutes", "result": "≤ 5", "unit": "min"}, {"measurement": "antigen persistence", "setting": "CpG-treated DCs", "result": "restored to untreated levels"}]}]}
